The subject of data set [1] is tobacco plants. Kind of data set: Nicotine and TSNA levels of field tobacco plants contacted with the compound, versus untreated plants. In kind it is in vivo. Conditions: compared to untreated tobacco plants. The method, then:
To reduce the level of nicotine and/or nitrosamine in a cultivated crop or field of tobacco, a concentrated solution of 2,4-D in water (e.g., a 10% solution) with the wetting agent “Agral 60” (e.g., a 0.0006% v/v miscible oil emulsion) is prepared. A control solution containing the wetting agent without 2,4-D is also prepared. These solutions are diluted to 0.1, 1, 10, or 100 ppm of 2,4-D in the final spray solution. Control and experimental fields of tobacco (e.g., Burley, Virginia Flue, and Oriental varieties in separate test plots cultivated by conventional techniques for the particular varieties) at various ages of maturity (some of which have been topped) are sprayed with parallel dilutions of the wetting agent alone. Plants are then sprayed with the above solutions to the dripping-off point. Plants are allowed to continue growing normally for 14 days. Plants are then harvested and sample leaves (from the same position on the plants of the same age) are quick-frozen using liquid nitrogen. Nicotine levels are measured on these sample leaves using standard techniques.
A quick drying curing technique or a conventional curing technique particular to the variety being tested is employed to obtain cured leaves (non-green or yellow dried leaves). Conventional TSNA analysis is then performed on the cured leaves and stems and/or portions thereof (e.g., lamina and midrib of the leaf). By following this approach, the amount of 2,4-D to apply to a specific variety of tobacco, for a specific age of plant (topped or not topped) in the field to achieve a reduced nicotine and/or nitrosamine level is readily determined. In the following example, ethylene precursors, such as ethephon, are used to decrease jasmonate-induced nicotine and/or nitrosamine levels in tobacco.

Data set [2] deals with tobacco plants. The conditions noted are these: early flowering stage; Fung et al. 1973; cited from earlier work.
Data set [3] has as its system lipoxygenase. Conditions: potato; Kolomiets et al. 2001; cited from earlier work.
For data set [4], the system named is lipoxygenase. The conditions noted are these: soybean; Creelman 1992; cited from earlier work.
Data set [5] has as its system jasmonic acid levels in plants. The conditions noted are these: Schweizer et al. 1997; cited from earlier work.

The structures appear in SMILES notation. Read-outs that look alike come from different tables or passages of the source.

Regarding `O=C(O)COc1ccc(Cl)cc1Cl` [2,4-D, 2,4-Dichlorophenoxyacetic acid], in the data set on tobacco plants [1], the “level of TSNAs in treated tobacco plants” value was “reduced levels” and the “level of nicotine in treated tobacco plants” value (“level of nicotine” below) is “reduced levels”. Moreover, the “harm to tobacco plants” value in the data set on tobacco plants [2] is “most harmful to tobacco plants during the early flowering stage”.
Regarding `COc1ccc2cc([C@H](C)C(=O)O)ccc2c1` [Naproxen], the “effect on lipoxygenase activity” value with lipoxygenase [3] and with lipoxygenase [4] was “inhibit lipoxygenase activity” each time.
With `O=C(O)c1ccccc1O` [salicylic acid, 2-hydroxybenzoic acid], in the data set on tobacco plants [1], the “level of TSNAs in treated tobacco plants” value is reported as “reduced amount” and the “level of nicotine” value is recorded as “reduced amount”.
Take `Clc1ccc(N2N=N[C@@H]3[C@@H]4C[C@@H]([C@H]5N=N[C@@H]45)[C@@H]32)cc1` [tetcyclacis]: in the data set with tobacco plants [1], the “level of TSNAs in treated tobacco plants” value was “reduced amount” and the “level of nicotine” value is “reduced amount”. Also, the “effect on jasmonic acid levels in plants” value in data set [5] is reported as “inhibit jasmonic acid levels”.

The record behind these values is patent publication US20050072047A1, “Tobacco having reduced nicotine and nitrosamines” (priority 2002, published 2005).
